For test [1], the target named is T1, Peroxisome proliferator-activated receptor delta (Homo sapiens, UniProt Q03181). In words: Effective concentration towards PPAR delta.
For test [2], the target named is T1, Peroxisome proliferator-activated receptor delta. In words: Effective concentration against PPAR delta receptor.
In a further test the test system is Gallus gallus. Description: In vivo inhibition of angiogenesis in the chick chorioallantoic membrane (CAM) assay. The format is functional.
In test [3] the test system is 1A9. Description: Inhibitory concentration against human 1A9 ovarian carcinoma cells. The format is functional, cell-based.
The test system of test [4] is OVCAR-3. Description: Cytotoxicity by measuring inhibitory concentration against ovcar-3 tumor cell line. Format: functional, cell-based, Homo sapiens. The note with it: Homo sapiens, OVCAR-3.
Test [5] deals with OVCAR-3. Description: Cytotoxicity by measuring inhibitory concentration against ovcar-3 tumor cell line; 10e-10. The note with it: Homo sapiens. Format: functional, cell-based.
Test [6] deals with Polyunsaturated fatty acid 5-lipoxygenase (Homo sapiens, UniProt P09917). In words: Effective concentration required to inhibit 5-lipoxygenase by 50%.
Test [7] deals with MCF7. In words: Inhibitory concentration against MCF-7 human breast carcinoma cell line; Inactive upto 1 uM. The format is functional, cell-based.
In test [8] the test system is PC-3. Description: Inhibitory concentration against PC-3 human prostate carcinoma cell line; Inactive upto 1 uM. Format: functional, cell-based.
Test [9] relates to 1A9/ptx-10. Description: Inhibitory concentration against 1A9/PTX10 cell line; Inactive upto 1 uM. The format is functional, cell-based, Homo sapiens.
Test [10] concerns A2780. Description: Inhibitory concentration against A2780/AD10 cell line; Inactive upto 1 uM. Format: functional, cell-based, Homo sapiens.
In test [11] the test system is A549. Description: Inhibitory concentration against A549 human lung carcinoma cell line; Inactive upto 1 uM. The format is functional, cell-based.
The test system of test [12] is 1A9. In words: Inhibitory concentration against 1A9 human ovarian carcinoma cell line; Inactive upto 1 uM. The format is functional, cell-based.
Test [13] deals with PC-3. In words: Inhibitory concentration against PC-3 human prostate carcinoma cell line; Range is 10-15 nM. Format: functional, cell-based.
Test [14] deals with MCF7. Description: Inhibitory concentration against MCF-7 human breast carcinoma cell line; Range is 10-15 nM. The format is functional, cell-based.
Test [15] relates to A2780. In words: Inhibitory concentration against A2780/AD10 cell line; Range is 10-15 nM. The format is functional, cell-based. Particulars: Homo sapiens.
The test system of test [16] is 1A9/ptx-10. Description: Inhibitory concentration against 1A9/PTX10 cell line; Range is 10-15 nM. The note with it: Homo sapiens. The format is functional, cell-based.
The test system of test [17] is A549. Description: Inhibitory concentration against A549 human lung carcinoma cell line; Range is 10-15 nM. Format: functional, cell-based.
In test [18] the test system is 1A9. In words: Inhibitory concentration against 1A9 human ovarian carcinoma cell line; Range is 10-15 nM. Format: functional, cell-based.
The target in the next test is Protein kinase C (PKC). In words: Inhibitory activity against protein kinase C. The format is protein assay.
Test [19] addresses cAMP-dependent protein kinase (PKA) (Homo sapiens, UniProt P22694+P17612+P22612). In words: Inhibitory constant against the protein kinase A. Format: protein assay.
The subject of a further test is Enterococcus faecium. Description: Minimum inhibitory concentration against vancomycin resistant Enterococcus faecium. The format is functional.
Test [20] deals with MOLT-4. Description: Inhibitory concentration against MOLT-4 human T-cells. Format: functional, cell-based.
In test [21] the test system is MOLT-4. Description: Inhibitory concentration against MOLT-4 human T-cells; 10e-11. Format: functional, cell-based.
The target in test [22] is T2, Sodium channel alpha subunits; brain (Types I, II, III) (Homo sapiens, UniProt P35498+Q99250+Q9NY46). Description: Inhibitory concentration against synaptosome using [3H]PbTx-3.
Test [23] concerns the target T2, Sodium channel alpha subunits; brain (Types I, II, III). In words: Inhibitory concentration against synaptosomes using [3H]PbTx-3. Format: subcellular.
For test [24] the target is unchanged.
Description: Binding affinity of [3H]PbTx-3 towards synaptosomes
The target in test [25] is T3, Integrin alpha-IIb/beta-3 (Homo sapiens, UniProt P05106+P08514). In words: Inhibitory concentration against integrin alpha-2b beta3. The format is protein-complex assay.
Test [26] addresses T3, Integrin alpha-IIb/beta-3. In words: Inhibitory concentration against alpha IIb beta-3 receptor. The format is protein-complex assay.

Values after ≈ are worked out from the molar mass of the structure shown.

T2 sequence (Q99250 whole entry, looked up, other chains not shown): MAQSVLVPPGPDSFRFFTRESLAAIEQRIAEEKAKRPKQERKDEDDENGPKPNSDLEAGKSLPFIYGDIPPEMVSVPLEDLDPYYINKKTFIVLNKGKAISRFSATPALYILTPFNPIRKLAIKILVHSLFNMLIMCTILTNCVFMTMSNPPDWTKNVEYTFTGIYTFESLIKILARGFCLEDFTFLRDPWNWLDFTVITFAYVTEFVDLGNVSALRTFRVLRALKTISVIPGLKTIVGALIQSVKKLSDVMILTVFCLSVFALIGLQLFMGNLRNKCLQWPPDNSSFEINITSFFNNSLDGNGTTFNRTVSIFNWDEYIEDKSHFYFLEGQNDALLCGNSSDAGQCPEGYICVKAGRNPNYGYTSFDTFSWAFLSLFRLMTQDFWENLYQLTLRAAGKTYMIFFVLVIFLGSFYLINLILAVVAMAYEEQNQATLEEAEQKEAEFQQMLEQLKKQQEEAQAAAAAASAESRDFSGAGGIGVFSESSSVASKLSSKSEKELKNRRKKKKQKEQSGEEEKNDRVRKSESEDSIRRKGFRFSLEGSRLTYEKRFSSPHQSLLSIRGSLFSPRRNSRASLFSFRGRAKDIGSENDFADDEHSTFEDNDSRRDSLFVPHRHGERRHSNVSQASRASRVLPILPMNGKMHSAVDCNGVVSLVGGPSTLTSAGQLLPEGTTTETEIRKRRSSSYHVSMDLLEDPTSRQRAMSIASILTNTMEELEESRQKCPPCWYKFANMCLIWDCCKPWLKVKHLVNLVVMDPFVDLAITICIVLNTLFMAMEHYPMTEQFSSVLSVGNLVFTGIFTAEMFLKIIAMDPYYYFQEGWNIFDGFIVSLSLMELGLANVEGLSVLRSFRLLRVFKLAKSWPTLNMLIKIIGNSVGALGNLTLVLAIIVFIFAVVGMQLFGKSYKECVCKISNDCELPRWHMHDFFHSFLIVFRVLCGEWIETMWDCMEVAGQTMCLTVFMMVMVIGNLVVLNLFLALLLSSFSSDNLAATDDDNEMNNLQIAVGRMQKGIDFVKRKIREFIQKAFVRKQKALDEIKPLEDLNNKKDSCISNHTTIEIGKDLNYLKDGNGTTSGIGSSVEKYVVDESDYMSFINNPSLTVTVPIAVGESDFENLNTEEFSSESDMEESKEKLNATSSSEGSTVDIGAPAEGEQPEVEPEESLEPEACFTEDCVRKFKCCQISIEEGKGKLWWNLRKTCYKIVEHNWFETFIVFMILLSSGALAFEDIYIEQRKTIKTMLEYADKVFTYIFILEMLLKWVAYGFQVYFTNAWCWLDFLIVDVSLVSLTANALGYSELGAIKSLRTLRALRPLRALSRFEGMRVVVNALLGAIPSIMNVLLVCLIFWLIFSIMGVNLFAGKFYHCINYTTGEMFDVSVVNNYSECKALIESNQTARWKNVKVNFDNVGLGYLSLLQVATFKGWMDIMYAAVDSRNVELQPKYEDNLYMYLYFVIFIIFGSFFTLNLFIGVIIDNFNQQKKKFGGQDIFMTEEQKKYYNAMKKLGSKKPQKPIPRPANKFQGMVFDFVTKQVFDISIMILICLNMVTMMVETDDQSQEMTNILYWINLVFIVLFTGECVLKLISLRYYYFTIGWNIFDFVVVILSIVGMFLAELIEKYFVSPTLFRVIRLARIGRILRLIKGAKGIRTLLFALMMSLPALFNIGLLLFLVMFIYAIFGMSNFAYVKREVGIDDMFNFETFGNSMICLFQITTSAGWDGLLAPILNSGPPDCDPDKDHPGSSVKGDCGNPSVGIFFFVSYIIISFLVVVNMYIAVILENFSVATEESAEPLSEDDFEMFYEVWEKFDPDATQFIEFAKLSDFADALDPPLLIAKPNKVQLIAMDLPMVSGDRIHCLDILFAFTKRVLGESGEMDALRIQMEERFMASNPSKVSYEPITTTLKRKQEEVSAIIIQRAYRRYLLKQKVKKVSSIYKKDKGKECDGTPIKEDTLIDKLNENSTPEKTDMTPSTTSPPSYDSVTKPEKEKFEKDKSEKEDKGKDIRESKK
T2 sequence (Q9NY46 whole entry, looked up, other chains not shown): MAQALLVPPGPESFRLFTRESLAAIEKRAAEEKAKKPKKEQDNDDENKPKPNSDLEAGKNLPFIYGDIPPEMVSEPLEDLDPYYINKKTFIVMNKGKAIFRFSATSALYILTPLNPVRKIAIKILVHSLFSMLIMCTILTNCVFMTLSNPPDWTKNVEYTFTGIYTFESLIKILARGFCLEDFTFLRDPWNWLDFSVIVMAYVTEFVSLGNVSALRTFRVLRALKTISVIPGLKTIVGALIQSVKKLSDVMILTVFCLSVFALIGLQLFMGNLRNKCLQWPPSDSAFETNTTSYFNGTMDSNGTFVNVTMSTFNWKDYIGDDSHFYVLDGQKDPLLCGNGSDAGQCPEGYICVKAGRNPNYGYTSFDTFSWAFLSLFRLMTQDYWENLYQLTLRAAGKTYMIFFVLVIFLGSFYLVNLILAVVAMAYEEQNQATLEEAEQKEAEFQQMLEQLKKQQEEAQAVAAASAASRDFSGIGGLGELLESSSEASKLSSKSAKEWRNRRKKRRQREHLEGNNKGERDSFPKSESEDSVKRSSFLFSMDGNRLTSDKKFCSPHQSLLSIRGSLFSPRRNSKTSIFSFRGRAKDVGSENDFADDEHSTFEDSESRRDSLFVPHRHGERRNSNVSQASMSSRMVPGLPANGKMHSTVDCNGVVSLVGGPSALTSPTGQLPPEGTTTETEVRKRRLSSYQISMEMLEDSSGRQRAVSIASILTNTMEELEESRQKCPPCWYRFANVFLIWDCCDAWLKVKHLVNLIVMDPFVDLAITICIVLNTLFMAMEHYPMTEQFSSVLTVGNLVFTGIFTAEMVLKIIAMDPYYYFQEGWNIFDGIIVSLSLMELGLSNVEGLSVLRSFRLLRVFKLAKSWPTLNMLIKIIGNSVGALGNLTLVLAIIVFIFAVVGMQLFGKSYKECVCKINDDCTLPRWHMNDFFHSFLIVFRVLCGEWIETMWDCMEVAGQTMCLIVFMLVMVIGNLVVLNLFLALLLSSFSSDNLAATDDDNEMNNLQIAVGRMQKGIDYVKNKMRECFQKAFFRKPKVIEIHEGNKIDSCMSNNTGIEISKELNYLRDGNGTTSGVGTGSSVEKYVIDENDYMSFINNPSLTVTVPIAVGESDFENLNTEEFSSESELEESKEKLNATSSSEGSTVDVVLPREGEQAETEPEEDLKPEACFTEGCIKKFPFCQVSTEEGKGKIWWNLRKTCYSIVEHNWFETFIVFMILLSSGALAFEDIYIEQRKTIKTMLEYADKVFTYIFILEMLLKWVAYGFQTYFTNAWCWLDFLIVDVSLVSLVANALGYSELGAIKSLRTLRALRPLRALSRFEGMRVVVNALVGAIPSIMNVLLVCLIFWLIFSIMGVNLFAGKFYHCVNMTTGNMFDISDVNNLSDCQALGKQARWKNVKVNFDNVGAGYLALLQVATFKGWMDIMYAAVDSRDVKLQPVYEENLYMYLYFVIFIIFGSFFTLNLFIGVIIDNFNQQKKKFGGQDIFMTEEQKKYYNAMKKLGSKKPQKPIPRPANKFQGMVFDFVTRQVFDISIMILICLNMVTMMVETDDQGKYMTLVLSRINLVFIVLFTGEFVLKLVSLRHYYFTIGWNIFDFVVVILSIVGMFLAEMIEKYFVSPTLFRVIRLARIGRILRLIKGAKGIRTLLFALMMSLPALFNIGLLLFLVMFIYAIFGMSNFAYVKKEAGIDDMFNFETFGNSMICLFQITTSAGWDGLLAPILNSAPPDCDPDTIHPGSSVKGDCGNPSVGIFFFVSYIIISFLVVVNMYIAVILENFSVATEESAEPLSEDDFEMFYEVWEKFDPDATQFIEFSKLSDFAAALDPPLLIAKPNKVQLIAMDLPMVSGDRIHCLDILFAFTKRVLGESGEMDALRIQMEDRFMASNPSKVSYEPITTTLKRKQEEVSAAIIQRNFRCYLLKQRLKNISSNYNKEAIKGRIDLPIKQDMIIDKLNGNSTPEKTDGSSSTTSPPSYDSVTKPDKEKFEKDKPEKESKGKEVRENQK
Sequence of Polyunsaturated fatty acid 5-lipoxygenase (P09917 whole entry): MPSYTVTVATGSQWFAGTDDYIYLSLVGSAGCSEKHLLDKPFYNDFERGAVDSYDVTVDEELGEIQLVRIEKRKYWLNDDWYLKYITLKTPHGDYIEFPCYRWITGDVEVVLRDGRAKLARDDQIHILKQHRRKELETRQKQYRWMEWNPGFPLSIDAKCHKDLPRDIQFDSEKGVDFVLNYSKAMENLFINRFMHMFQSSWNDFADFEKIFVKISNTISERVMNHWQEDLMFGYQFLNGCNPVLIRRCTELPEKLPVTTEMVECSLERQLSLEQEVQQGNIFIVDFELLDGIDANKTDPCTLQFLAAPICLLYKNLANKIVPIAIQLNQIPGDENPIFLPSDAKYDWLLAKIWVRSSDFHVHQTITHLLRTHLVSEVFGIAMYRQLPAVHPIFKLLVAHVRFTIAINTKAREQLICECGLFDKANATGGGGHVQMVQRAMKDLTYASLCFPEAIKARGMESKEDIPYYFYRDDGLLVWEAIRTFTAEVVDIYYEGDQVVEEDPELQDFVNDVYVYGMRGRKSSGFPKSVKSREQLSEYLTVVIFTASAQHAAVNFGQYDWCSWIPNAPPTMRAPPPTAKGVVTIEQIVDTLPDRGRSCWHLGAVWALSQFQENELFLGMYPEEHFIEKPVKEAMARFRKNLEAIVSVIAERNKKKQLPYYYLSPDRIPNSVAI
T1 sequence (Q03181 whole entry): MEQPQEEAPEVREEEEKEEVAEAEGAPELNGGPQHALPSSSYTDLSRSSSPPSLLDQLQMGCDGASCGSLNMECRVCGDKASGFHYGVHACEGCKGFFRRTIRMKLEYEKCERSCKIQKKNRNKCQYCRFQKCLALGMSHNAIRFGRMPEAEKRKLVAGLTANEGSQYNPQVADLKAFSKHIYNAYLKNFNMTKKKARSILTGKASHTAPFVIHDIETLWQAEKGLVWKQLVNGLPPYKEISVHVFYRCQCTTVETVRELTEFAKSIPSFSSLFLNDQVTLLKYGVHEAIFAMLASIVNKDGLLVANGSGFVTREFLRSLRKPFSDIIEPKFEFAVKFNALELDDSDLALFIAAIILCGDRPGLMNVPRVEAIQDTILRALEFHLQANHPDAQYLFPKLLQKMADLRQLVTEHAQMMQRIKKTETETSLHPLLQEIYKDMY

In the case of `CC(C)N(Cc1cccc2c1OC(C)(C)C=C2)C(=O)c1ccc(-c2ccccc2)cc1`, the values for the EC50 in [1] and in test [2] were 1000 nM and 1 nM, respectively.
Turning to `N=C(N)NCCOc1ccc(C(=O)NC[C@H](NS(=O)(=O)c2ccccc2)C(=O)O)cc1[N+](=O)[O-]`, in the test on Gallus gallus, the Dose came out at 30 ug/embryo.
As to `COC[C@@H](C[C@H]1O[C@@](O)([C@H](O)[C@@H]2C[C@H](OC)[C@@H](O)CC/C=C(C)/C=C/[C@@H](O[C@@H]3O[C@@H](C)[C@H](OC)[C@@H](O)[C@@H]3O)[C@H](C)/C=C(C)/C=C(C)/C=C(\C)C(=O)O2)[C@H](C)[C@@H](O)[C@H]1C)OC1C[C@](C)(O)[C@@H](O[C@H]2C[C@@H](OC)[C@H](O)[C@@H](C)O2)[C@H](C)O1` (some centres not stated) [APOPTOLIDIN], half-maximal inhibition in the test on 1A9 [3] (IC50) required 240000 nM.
As to `CC(=O)OC1C(=O)[C@@]2(C)[C@H]([C@H](OC(=O)c3ccsc3)[C@]3(O)C[C@H](OC(=O)[C@H](O)[C@@H](NC(=O)c4ccccc4)c4ccccc4)C(C)=C1C3(C)C)[C@]1(OC(C)=O)CO[C@@H]1C[C@@H]2O` (some centres not stated), the IC50 (usually the point on the concentration scale where inhibition reaches its midpoint) amounted to 0.671 nM in the test on OVCAR-3 [4] and 0.67 nM with OVCAR-3 [5].
On to `O=C(O)CCC[C@H](O)\C=C/C=C/C=C/[C@H](O)C/C=C\CCCCC(F)(F)F`, for which it took 3 nM to reach a half-maximal effect in test [6] (EC50).
On to `CC(C)[C@H](O)C(=O)N[C@H]1Cc2ccc(O)c(c2)[C@]2(C(=O)Nc3ccccc32)C2=C(CO)N=C(O2)[C@H](C(C)C)NC1=O`, for which the IC50 result in the test on MCF7 [7], with PC-3 [8], in the test with 1A9/ptx-10 [9], with A2780 [10], in the test with A549 [11] and with 1A9 [12] was “Inactive” throughout.
On to `CC(C)[C@@H]1NC(=O)[C@@H](NC(=O)[C@H](O)C(C)C)Cc2ccc3c(c2)[C@]24C5=C(N=C1O5)c1nc(Cl)c(o1)-c1c(Cl)[nH]c5cccc(c15)-c1cccc2c1N[C@@H]4O3`, for which the IC50 with PC-3 [13], with MCF7 [14], with A2780 [15], with 1A9/ptx-10 [16], with A549 [17] and with 1A9 [18] was 15 nM in each case.
With `O=C(N[C@@H]1CNCCC[C@H]1OC(=O)c1cc(O)c(C(=O)c2ccccc2C(=O)O)c(O)c1)c1ccc(O)cc1`, the Ki (commonly a dissociation constant, usually derived from enzyme kinetics or from competition with a known ligand) amounted to 640 nM at Protein kinase C (PKC) and 3.9 nM in [19].
Turning to `CC1OC(OC2C(Oc3c4cc5cc3Oc3ccc(cc3Cl)[C@H](O)[C@H]3NC(=O)[C@@H](NC(=O)[C@H]5NC(=O)[C@@H](CC(N)=O)NC(=O)[C@@H](NC(=O)[C@@H](N)CO)[C@@H](O)c5ccc(c(Cl)c5)O4)c4ccc(O)c(c4)-c4c(O)cc(O)cc4[C@H](C(=O)NCC(=O)O)NC3=O)OC(CO)C(O)C2O)CC(C)(NCc2cccc(OCC/C=C\COc3cccc(CNC4(C)CC(OC5C(Oc6c7cc8cc6Oc6ccc(cc6Cl)[C@@H](O)[C@@H](NC(=O)[C@H](N)CO)C(=O)N[C@@H](CC(N)=O)C(=O)N[C@H]8C(=O)N[C@H]6C(=O)N[C@H](C(=O)N[C@H](C(=O)NCC(=O)O)c8cc(O)cc(O)c8-c8cc6ccc8O)[C@H](O)c6ccc(c(Cl)c6)O7)OC(CO)C(O)C5O)OC(C)C4O)c3)c2)C1O` (some centres not stated), in the test with Enterococcus faecium, the MIC – broadly, the smallest concentration in the dilution series that meets the test's criterion for growth inhibition – is 0.25 µg/mL (≈ 0.0779 µM).
Consider `COC(=O)N/C(C)=C1/C(=C/COC(=O)c2ccc([N+](=O)[O-])cc2)[C@@](O)(CC=O)C#C/C=C\C#C[C@@H]1O`, for which the IC50 with MOLT-4 [20] and with MOLT-4 [21] was 0.044 nM throughout.
With `C=C(C=O)C[C@@H]1C[C@H](O)[C@]2(C)O[C@@H]3C[C@@H]4O[C@@H]5C[C@]6(C)O[C@]7(C)CC[C@@H]8O[C@@H]9C[C@]%10(C)O[C@@H]%11C(C)=CC(=O)O[C@H]%11C[C@H]%10O[C@H]9C[C@@H](C)[C@H]8O[C@H]7C[C@H]6O[C@@]5(C)C/C=C\[C@H]4O[C@H]3C[C@H]2O1` [BREVETOXIN B], the IC50 in [22] and in test [23] was 15.02 nM each time. Further, the Binding in test [24] was found to be 18 nM.
Take `C=C(C=O)C[C@@H]1C[C@H](O)[C@]2(C)O[C@@H]3C[C@@H]4O[C@@H]5C[C@]6(C)O[C@]7(C)C(C)=CC(=O)O[C@H]7C[C@H]6O[C@@]5(C)C/C=C\[C@H]4O[C@H]3C[C@H]2O1` [TRUNCATED BREVETOXIN B]: the 50% inhibitory concentration (IC50) in test [22] and in test [23] was above 10000 nM throughout. The compound also yielded a Binding in test [24] of 18 nM.
On to `N=C(N)N1CCN(c2ccc(C(=O)NC[C@H](NS(=O)(=O)c3c(O)ccc4ccccc34)C(=O)O)cc2[N+](=O)[O-])CC1`, for which the IC50 in [25] and in test [26] was 14 nM each time.
